Patent US7723075B2, “Methods of screening for TRPM5 modulators” (The Queens's Medical Center, priority 2003, dated 2010)

How the values were obtained:
TRPM5 [1] = target: T1, TRPM5 (Homo sapiens, UniProt Q9NZQ8); experiment: Combined patch-clamp and fura-2 recordings of TRPM5 currents after Ca2+ release, [Ca2+]i not buffered; assay type: cell-based
T1 construct: Human TRPM5 cDNA containing the complete ORF of the long splice version; expressed in transfected cells
T1 sequence (Q9NZQ8 1-1165): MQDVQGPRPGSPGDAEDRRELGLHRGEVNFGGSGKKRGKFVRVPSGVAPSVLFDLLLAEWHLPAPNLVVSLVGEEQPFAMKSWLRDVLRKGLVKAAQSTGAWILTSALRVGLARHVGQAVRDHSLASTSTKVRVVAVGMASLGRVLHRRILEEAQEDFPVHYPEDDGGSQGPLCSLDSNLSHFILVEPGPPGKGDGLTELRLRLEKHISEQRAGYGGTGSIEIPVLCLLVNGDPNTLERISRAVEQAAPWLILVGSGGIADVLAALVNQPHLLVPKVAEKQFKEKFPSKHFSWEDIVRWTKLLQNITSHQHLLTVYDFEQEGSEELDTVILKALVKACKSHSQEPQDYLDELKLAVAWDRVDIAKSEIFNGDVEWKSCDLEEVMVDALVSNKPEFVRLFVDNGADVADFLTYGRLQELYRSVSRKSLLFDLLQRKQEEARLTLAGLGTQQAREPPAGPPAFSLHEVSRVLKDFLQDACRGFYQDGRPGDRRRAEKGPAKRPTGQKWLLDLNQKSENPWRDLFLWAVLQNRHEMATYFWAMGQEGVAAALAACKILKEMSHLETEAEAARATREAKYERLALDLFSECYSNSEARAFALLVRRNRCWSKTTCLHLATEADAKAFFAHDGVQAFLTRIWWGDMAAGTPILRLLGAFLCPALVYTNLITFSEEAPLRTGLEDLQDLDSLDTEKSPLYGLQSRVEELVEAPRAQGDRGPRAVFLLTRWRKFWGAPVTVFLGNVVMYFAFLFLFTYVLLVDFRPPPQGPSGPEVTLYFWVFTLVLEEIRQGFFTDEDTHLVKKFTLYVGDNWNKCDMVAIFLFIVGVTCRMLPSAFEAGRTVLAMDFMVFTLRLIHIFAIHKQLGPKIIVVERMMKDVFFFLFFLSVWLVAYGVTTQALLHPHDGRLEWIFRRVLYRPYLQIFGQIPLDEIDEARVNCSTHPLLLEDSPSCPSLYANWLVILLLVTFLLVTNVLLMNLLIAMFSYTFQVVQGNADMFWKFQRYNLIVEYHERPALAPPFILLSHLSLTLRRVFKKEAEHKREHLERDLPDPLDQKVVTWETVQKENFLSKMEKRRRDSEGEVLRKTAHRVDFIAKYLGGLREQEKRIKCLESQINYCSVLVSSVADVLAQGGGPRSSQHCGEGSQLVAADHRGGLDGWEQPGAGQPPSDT
From the text: (§1) Cells grown on glass coverslips were transferred to the recording chamber and kept in a standard modified Ringer's solution of the following composition (in mM): NaCl 140, KCl 2.8, CaC12 1, MgC12 2, glucose 10, Hepes.NaOH 10, pH 7.2, with osmolarity typically ranging from 298-308 mOsm. Intracellular pipette-filling solutions contained (in MM): K-glutamate 120, NaCl 8, MgC12 1, K-BAPTA 10, HEPES.CsOH, pH 7.2 adjusted with KOH. In order to adjust free [Ca^2+]i, to the desired concentration appropriate amounts of CaC12 were added as calculated with WebMaxC v2.1 (available through Stanford University). In the case of fura-2 measurements intracellular K-BAPTA was replaced by 200 μM fura-2. Fura-2 is a calcium indicator (Handbook of Fluorescent Probes and Research Chemicals, 9th ed. Molecular Probes). […]
(§2) The cytosolic calcium concentration was monitored at a rate of 5 Hz with a photomultiplier-based system using a monochromatic light source tuned to excite fura-2 fluorescence at 360 and 390 nm for 20 ms each (TILL Photonics, Munich, Germany). Emission was detected at 450-550 run with a photomultiplier, whose analog signals were sampled and processed by X-Chart software (HEKA, Lambrecht, Germany). Fluorescence ratios were translated into free intracellular calcium concentration based on calibration parameters derived from patch-clamp experiments with calibrated calcium concentrations. […]

[2] = test system: endogenous TRPM5-like currents in INS-1 cells; experiment: Whole-cell currents in INS-1 beta cells perfused with defined [Ca2+]i; assay type: cell-based, rat
Experimental: (§3) Patch-clamp experiments were performed in the tight-seal whole-cell configuration at 21-25° C. High-resolution current recordings were acquired by a computer-based patch-clamp amplifier system (EPC-9, HEKA, Lambrecht, Germany). Patch pipettes had resistances between 2-4 MS2 after filling with the standard intracellular solution. Immediately following establishment of the whole-cell configuration, voltage ramps of 50 ms duration spanning the voltage range of −100 to +100 mV were delivered from a holding potential of 0 mV at a rate of 0.5 Hz over a period of 300 to 600 seconds. All voltages were corrected for a liquid junction potential of 10 mV between external and internal solutions when using glutamate as intracellular anion. Currents were filtered at 2.9 kHz and digitized at […] intervals. Capacitive currents and series resistance were determined and corrected before each voltage ramp using the automatic capacitance compensation of the EPC-9. The low-resolution temporal development of membrane currents was assessed by extracting the current amplitude at −80 and +80 mV from individual ramp current records. Where applicable, statistical errors of averaged data are given as means±S.E.M. with n determinations and statistical significance was assessed by Student's t-test. For single channel measurements inside-out patches were pulled into a modified standard external solution that contained no Ca^2+ and had 1 mM Na-EDTA. To record single channels a ramp protocol of 4.5 s from −100 mV to +100 mV and digitized at […] was given with no wait time in between ramps. Ramps that had no channel activity during Ca^2+ application were used for leak correction and subtracted form all ramps acquired. Data collection was at 2.9 kHz filter setting and digitally filtered at 50 Hz for display purposes.
TRPM5 is found in another beta cell line, INS-1 (FIG. 5B). The INS-1 line was used to assess the electrophysiological features of TRPM5 in a native cellular context. Since the pancreatic beta-cell line INS-1 expressed TRPM5, the native TRPM5 currents in these cells was studied using the same experimental protocols that activated TRPM5 in the heterologous HEK-293 expression system (Examples 1-3). FIG. 5C illustrates that perfusing INS-1 cells with an intracellular solution that contained elevated levels of Ca^2+ (800 nM) induced a transient current, whose current-voltage relationship (FIG. 5D) was outwardly rectifying and closely resembled the current-voltage characteristics obtained for TRPM5 in the transfected HEK-293 cells. […]

TRPM5 single channels = target: T2, TRPM5 single channels (Homo sapiens, UniProt Q9NZQ8); experiment: Single-channel recordings in inside-out patches from HEK-293 cells stably expressing TRPM5; assay type: biochemical; conditions: cytosolic side exposed to 300 nM Ca2+, n=5
T2 construct: Human TRPM5 cDNA containing the complete ORF of the long splice version; expressed in transfected cells
T2 sequence (Q9NZQ8 1-1165): T1 sequence (Q9NZQ8 1-1165)
From the text: FIG. 4A depicts studies in which the inside-out patches were pulled from HEK-293 cells stably expressing TRPM5 channels. To record single channels a ramp protocol of 4.5 s from −100 mV to +100 mV was given with no wait time in between ramps. Ramps that had no channel activity during Ca^2+ application ere used for leak correction. Data were acquired at 2.9 kHz filter setting and digitally filtered at 50 Hz for display purposes. […] The last panel is an example 1 s after stop of application and removal of Ca^2+. This patch had at least 7 channels. […] Records are representative of all 5 patches recorded this way. […]
Patch-clamp experiments were performed in the tight-seal whole-cell configuration at 21-25° C. […] Capacitive currents and series resistance were determined and corrected before each voltage ramp using the automatic capacitance compensation of the EPC-9. The low-resolution temporal development of membrane currents was assessed by extracting the current amplitude at −80 and +80 mV from individual ramp current records. Where applicable, statistical errors of averaged data are given as means±S.E.M. with n determinations and statistical significance was assessed by Student's t-test. […]
The single-channel properties of TRPM5 were analyzed in cell-free excised membrane patches in the inside-out configuration of the patch-clamp technique. […]

TRPM4 = TRPM4 (Homo sapiens, UniProt Q8TD43); experiment: Dose-dependence of TRPM4 currents evoked by intracellular [Ca2+]i; assay type: cell-based
TRPM5 [3] = target: T1, TRPM5; experiment: Whole-cell patch-clamp of TRPM5 currents in HEK-293 cells stably expressing TRPM5, [Ca2+]i buffered in pipette; assay type: cell-based; conditions: for Hill coefficient, inhibition of TRPM5: fit to inhibitory phase
From the text: Cells grown on glass coverslips were transferred to the recording chamber and kept in a standard modified Ringer's solution of the following composition (in mM): NaCl 140, KCl 2.8, CaC12 1, MgC12 2, glucose 10, Hepes.NaOH 10, pH 7.2, with osmolarity typically ranging from 298-308 mOsm. Intracellular pipette-filling solutions contained (in MM): K-glutamate 120, NaCl 8, MgC12 1, K-BAPTA 10, HEPES.CsOH, pH 7.2 adjusted with KOH. In order to adjust free [Ca^2+]i, to the desired concentration appropriate amounts of CaC12 were added as calculated with WebMaxC v2.1 (available through Stanford University). In the case of fura-2 measurements intracellular K-BAPTA was replaced by 200 μM fura-2. Fura-2 is a calcium indicator (Handbook of Fluorescent Probes and Research Chemicals, 9th ed. Molecular Probes). Solution changes were performed by pressure ejection from a wide-tipped pipette. Thrombin (NaCl-based buffer) was purchased from Sigma.
Cells expressing TRPM5 were prepared as in Example 1. The cells were perfused with an internal solution in which the free Ca^2+ concentration was buffered to 500 nM with an appropriate mixture of BAPTA and CaC12. […] The activation kinetics of TRPM5 currents under these experimental conditions is characterized by a half-time to peak of −3 s, with the peak current itself at −10 s. The current inactivates similarly rapidly to basal levels with a half-time of —13 s.
as §3

HEK-293 cells = experiment: fura-2 measurement of [Ca2+]i in TRPM5-expressing HEK-293 cells; assay type: cell-based, human; conditions: thrombin 20 U/ml, n=5
From the text: as §1, §2

TRPM4, sequence (Q8TD43 whole entry): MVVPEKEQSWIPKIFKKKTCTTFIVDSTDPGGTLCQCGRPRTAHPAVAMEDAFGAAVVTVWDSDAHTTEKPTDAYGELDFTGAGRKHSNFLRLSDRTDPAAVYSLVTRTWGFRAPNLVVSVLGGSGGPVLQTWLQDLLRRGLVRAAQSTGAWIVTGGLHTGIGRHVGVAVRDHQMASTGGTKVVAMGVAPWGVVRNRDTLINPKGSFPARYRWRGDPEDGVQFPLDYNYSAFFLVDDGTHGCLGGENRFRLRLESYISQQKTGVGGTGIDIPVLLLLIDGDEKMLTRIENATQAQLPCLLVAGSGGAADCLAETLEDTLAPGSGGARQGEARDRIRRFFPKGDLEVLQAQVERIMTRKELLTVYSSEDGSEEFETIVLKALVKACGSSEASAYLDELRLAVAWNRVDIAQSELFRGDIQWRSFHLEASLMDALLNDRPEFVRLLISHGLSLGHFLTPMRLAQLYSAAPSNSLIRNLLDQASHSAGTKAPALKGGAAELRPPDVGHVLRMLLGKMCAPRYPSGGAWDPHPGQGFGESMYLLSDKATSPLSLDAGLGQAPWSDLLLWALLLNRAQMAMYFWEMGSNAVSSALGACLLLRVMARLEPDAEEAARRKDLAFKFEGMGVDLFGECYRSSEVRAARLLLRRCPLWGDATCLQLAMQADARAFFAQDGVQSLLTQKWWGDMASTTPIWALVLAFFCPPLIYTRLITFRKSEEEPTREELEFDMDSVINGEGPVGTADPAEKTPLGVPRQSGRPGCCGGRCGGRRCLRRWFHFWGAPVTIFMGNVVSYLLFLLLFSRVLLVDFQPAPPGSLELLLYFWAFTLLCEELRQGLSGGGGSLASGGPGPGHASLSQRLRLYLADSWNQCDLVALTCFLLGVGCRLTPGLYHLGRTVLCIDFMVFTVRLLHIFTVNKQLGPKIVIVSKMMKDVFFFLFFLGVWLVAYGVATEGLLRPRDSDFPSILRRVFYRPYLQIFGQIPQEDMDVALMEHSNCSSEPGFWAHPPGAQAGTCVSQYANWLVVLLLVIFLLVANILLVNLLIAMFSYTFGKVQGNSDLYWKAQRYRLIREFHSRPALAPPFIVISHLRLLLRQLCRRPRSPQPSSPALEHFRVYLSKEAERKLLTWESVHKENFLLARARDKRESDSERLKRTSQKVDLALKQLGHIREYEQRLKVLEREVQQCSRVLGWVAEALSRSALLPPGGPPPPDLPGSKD

O=C([O-])CN(CC(=O)[O-])c1ccccc1OCCOc1ccccc1N(CC(=O)[O-])CC(=O)[O-].[K+].[K+].[K+].[K+] [BAPTA]
effect on TRPM5 activation by thrombin (TRPM5 [1]; 10 mM BAPTA in the pipette solution, n=6, data not shown): consistently suppressed TRPM5 activation

[Ca+2] [[Ca^2+]i]
activation of endogenous TRPM5-like currents ([2]; 100 nM [Ca2+]i, n=3): neither 100 nM (n=3) nor 300 nM (n=3) activated any currents
activation of endogenous TRPM5-like currents ([2]; 300 nM [Ca2+]i, n=3): neither 100 nM (n=3) nor 300 nM (n=3) activated any currents
activation of endogenous TRPM5-like currents ([2]; 500 nM [Ca2+]i, n=3): a distinctive, transient TRPM5-like current was activated
activation of endogenous TRPM5-like currents ([2]; 800 nM [Ca2+]i, n=8): a distinctive, transient TRPM5-like current was activated
TRPM5 single-channel activity in inside-out patch (TRPM5 single channels): activity of multiple channels was observed
EC50 (TRPM4; data re-calculated by WebmaxC): 885 nM
Hill coefficient, TRPM4 currents (TRPM4; data re-calculated by WebmaxC): 3.6
inhibition of TRPM4 activity at high [Ca2+]i (TRPM4; levels up to 1.3 μM, Ref. 9 and data not shown): without signs of inhibition
average peak amplitude of TRPM5 inward currents (TRPM5 [3]; at −80 mV, [Ca2+]i of 1 μM, n=5): −440 pA
Hill coefficient, inhibition of TRPM5 (TRPM5 [3]): −6
Hill coefficient, inhibition of TRPM5 (TRPM5 [3]; listed as [Ca2+]i): 6
Hill coefficient, activation of TRPM5 (TRPM5 [3]; fit to rising phase): 4
EC50 (TRPM5 [3]; whole-cell, HEK-293 expressing TRPM5, n=5-20, read-out: EC50 for activation of TRPM5 currents (rising phase)): 850 nM
IC50 (TRPM5 [3]; whole-cell, HEK-293 expressing TRPM5, n=5-20, read-out: IC50 of the inhibitory phase of TRPM5 currents): 1100 nM

Thrombin
TRPM5 currents at +80 and −80 mV on thrombin stimulation (TRPM5 [1]; thrombin 20 U/ml, n=5): transient increase in inward and outward currents
[Ca2+]i signal on thrombin stimulation (HEK-293 cells): large Ca^2+-release transient
